From PubChem BioAssay (NCI)
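Five compound concentrations were applied to cells in 96-well plates for 48 hours; endpoints were derived by simple linear interpolation of the resulting dose-response curve. The concentration for 50% growth inhibition is given as GI50. TGI denotes the concentration required for complete inhibition of growth.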

Assays:
Test in all cases: NCI tumour cell line growth inhibition, 48 h
[1] = test system: 786-0 renal
[2] = test system: A498 renal
[3] = test system: A549 NSCLC
[4] = test system: ACHN renal
[5] = test system: BT-549 breast
[6] = test system: CAKI-1 renal
[7] = test system: CCRF-CEM leukemia
[8] = test system: COLO 205 colon
[9] = test system: DU-145 prostate
[10] = test system: EKVX NSCLC
[11] = test system: HCC-2998 colon
[12] = test system: HCT-116 colon
[13] = test system: HCT-15 colon
[14] = test system: HL-60(TB) leukemia
[15] = test system: HOP-62 NSCLC
[16] = test system: HOP-92 NSCLC
[17] = test system: HS 578T breast
[18] = test system: HT29 colon
[19] = test system: IGROV1 ovarian
[20] = test system: K-562 leukemia
[21] = test system: KM12 colon
[22] = test system: LOX IMVI melanoma
[23] = test system: M14 melanoma
[24] = test system: MALME-3M melanoma
[25] = test system: MCF7 breast
[26] = test system: MDA-MB-231 breast
[27] = test system: MDA-MB-435
[28] = test system: MDA-MB-468 breast
[29] = test system: MOLT-4 leukemia
[30] = test system: NCI-H226 lung
[31] = test system: NCI-H23 lung
[32] = test system: NCI-H460 lung
[33] = test system: NCI-H522 lung
[34] = test system: NCI/ADR-RES ovarian
[35] = test system: OVCAR-3 ovarian
[36] = test system: OVCAR-4 ovarian
[37] = test system: OVCAR-5 ovarian
[38] = test system: OVCAR-8 ovarian
[39] = test system: PC-3 prostate
[40] = test system: RPMI-8226 leukemia
[41] = test system: RXF 393 renal
[42] = test system: SF-268 CNS
[43] = test system: SF-295 CNS
[44] = test system: SF-539 CNS
[45] = test system: SK-MEL-2 melanoma
[46] = test system: SK-MEL-28 melanoma
[47] = test system: SK-MEL-5 melanoma
[48] = test system: SK-OV-3 ovarian
[49] = test system: SN12C renal
[50] = test system: SNB-19 CNS
[51] = test system: SNB-75 CNS
[52] = test system: SR leukemia
[53] = test system: SW-620 colon
[54] = test system: T-47D breast
[55] = test system: TK-10 renal
[56] = test system: U251 CNS
[57] = test system: UACC-257 melanoma
[58] = test system: UACC-62 melanoma
[59] = test system: UO-31 renal

O=C(Cn1c(-c2ccccc2)nc2ccccc21)N=Nc1c(O)[nH]c2ccc(Cl)cc12 was tested, and the GI50 [1] was 17.9 µM, the TGI [1] was 39 µM and the GI50 [2] was 13.6 µM. It also gave a TGI [2] of 27.3 µM, a GI50 [3] of 13.6 µM and a TGI [3] of 30.8 µM. For the same compound, the GI50 [4] was 16 µM, the TGI [4] was 34 µM and the GI50 [5] was 16.7 µM. The TGI [5] was 35.7 µM, the GI50 [6] was 13.5 µM and the TGI [6] was 27 µM. For the same compound, the GI50 [7] was 20 µM, the TGI [7] was > 100 µM and the GI50 [8] was 21 µM. The TGI [8] was 47.9 µM, the GI50 [9] was 18.4 µM and the TGI [9] was 40.2 µM. It also gave a GI50 [10] of 11 µM, a TGI [10] of 25.6 µM and a GI50 [11] of 13.4 µM. For the same compound, the TGI [11] was 27.5 µM, the GI50 [12] was 10 µM and the TGI [12] was 29.3 µM. For the same compound, the GI50 [13] was 9.6 µM, the TGI [13] was 24 µM and the GI50 [14] was 24 µM. The TGI [14] was > 100 µM, the GI50 [15] was 17.2 µM and the TGI [15] was 37.7 µM. The GI50 [16] was 13.6 µM, the TGI [16] was 31.4 µM and the GI50 [17] was 16.5 µM. It also gave a TGI [17] of 49.6 µM, a GI50 [18] of 14.7 µM and a TGI [18] of 30.7 µM. For the same compound, the GI50 [19] was 14.4 µM, the TGI [19] was 29.9 µM and the GI50 [20] was 6.91 µM. For the same compound, the TGI [20] was > 100 µM, the GI50 [21] was 19.2 µM and the TGI [21] was 62.2 µM. It also gave a GI50 [22] of 14.5 µM, a TGI [22] of 28.6 µM and a GI50 [23] of 17.7 µM. For the same compound, the TGI [23] was 40.4 µM, the GI50 [24] was 12.2 µM and the TGI [24] was 25.5 µM. The GI50 [25] was 10.9 µM, the TGI [25] was 25.2 µM and the GI50 [26] was 11.9 µM. For the same compound, the TGI [26] was 24.9 µM, the GI50 [27] was 9.18 µM and the TGI [27] was 26 µM. It also gave a GI50 [28] of 5.77 µM, a TGI [28] of 18.9 µM and a GI50 [29] of 6.41 µM. The TGI [29] was > 100 µM, the GI50 [30] was 12.1 µM and the TGI [30] was 30.2 µM. For the same compound, the GI50 [31] was 13.7 µM, the TGI [31] was 28.2 µM and the GI50 [32] was 15.4 µM. It also gave a TGI [32] of 33 µM, a GI50 [33] of 10.3 µM and a TGI [33] of 25.1 µM. It also gave a GI50 [34] of 12.8 µM, a TGI [34] of 29.7 µM and a GI50 [35] of 16.1 µM. The TGI [35] was 37.2 µM, the GI50 [36] was 15.3 µM and the TGI [36] was 34.2 µM. For the same compound, the GI50 [37] was 18.8 µM, the TGI [37] was 48 µM and the GI50 [38] was 16.1 µM. The TGI [38] was 34.5 µM, the GI50 [39] was 12.7 µM and the TGI [39] was 33.8 µM. For the same compound, the GI50 [40] was 20.5 µM, the TGI [40] was > 100 µM and the GI50 [41] was 4.99 µM. The TGI [41] was 18.6 µM, the GI50 [42] was 16.1 µM and the TGI [42] was 47.9 µM. For the same compound, the GI50 [43] was 12.3 µM, the TGI [43] was 26.1 µM and the GI50 [44] was 14.7 µM. The TGI [44] was 30.5 µM, the GI50 [45] was 17.4 µM and the TGI [45] was 36.5 µM. The GI50 [46] was 14.4 µM, the TGI [46] was 30.2 µM and the GI50 [47] was 14.6 µM. For the same compound, the TGI [47] was 31.3 µM, the GI50 [48] was 19.3 µM and the TGI [48] was 38.2 µM. For the same compound, the GI50 [49] was 15.5 µM, the TGI [49] was 31.1 µM and the GI50 [50] was 16.7 µM. For the same compound, the TGI [50] was 33.7 µM, the GI50 [51] was 10.3 µM and the TGI [51] was 23.6 µM. The GI50 [52] was 8.56 µM, the TGI [52] was > 100 µM and the GI50 [53] was 15.5 µM. It also gave a TGI [53] of 37.7 µM, a GI50 [54] of 11.6 µM and a TGI [54] of 30 µM. The GI50 [55] was 17.5 µM, the TGI [55] was 35.6 µM and the GI50 [56] was 16.9 µM. It also gave a TGI [56] of 33.4 µM, a GI50 [57] of 14.1 µM and a TGI [57] of 28.6 µM. For the same compound, the GI50 [58] was 12.4 µM, the TGI [58] was 25.5 µM and the GI50 [59] was 11.4 µM. For the same compound, the TGI [59] was 24.1 µM.

Compound COc1cnc2c(c1)C(=O)c1c-2n(CCCNC(C)C)c(=O)c2cc(OC)c(OC)cc12 has a GI50 [1] of 5.51 µM, a TGI [1] of 19.1 µM and a GI50 [2] of 14.2 µM. The TGI [2] was 27.5 µM, the GI50 [3] was 5.7 µM and the TGI [3] was 23.8 µM. For the same compound, the GI50 [4] was 1.75 µM, the TGI [4] was 13.7 µM and the GI50 [5] was 4.26 µM. For the same compound, the TGI [5] was 20.6 µM, the GI50 [6] was 2.17 µM and the TGI [6] was 15.7 µM. The GI50 [7] was 0.256 µM, the TGI [7] was 89.9 µM and the GI50 [8] was 5.74 µM. For the same compound, the TGI [8] was 22.6 µM, the GI50 [9] was 1.27 µM and the TGI [9] was 13.5 µM. It also gave a GI50 [10] of 10.4 µM, a TGI [10] of 22.4 µM and a GI50 [11] of 3.09 µM. It also gave a TGI [11] of 16.8 µM, a GI50 [12] of 1.02 µM and a TGI [12] of 12.8 µM. It also gave a GI50 [13] of 1.86 µM, a TGI [13] of 16.3 µM and a GI50 [14] of 3.54 µM. It also gave a TGI [14] of 17.2 µM, a GI50 [15] of 0.702 µM and a TGI [15] of 7.94 µM. The GI50 [16] was 9.11 µM, the TGI [16] was 23.9 µM and the GI50 [17] was 11.2 µM. For the same compound, the TGI [17] was 32.6 µM, the GI50 [18] was 1.43 µM and the TGI [18] was 10.1 µM. The GI50 [19] was 10.8 µM, the TGI [19] was 23.3 µM and the GI50 [20] was 0.496 µM. It also gave a TGI [20] of 22.5 µM, a GI50 [21] of 8.02 µM and a TGI [21] of 21.9 µM. The GI50 [22] was 1.19 µM, the TGI [22] was 4.6 µM and the GI50 [23] was 4.91 µM. For the same compound, the TGI [23] was 20 µM, the GI50 [24] was 11.5 µM and the TGI [24] was 24 µM. For the same compound, the GI50 [25] was 0.222 µM, the TGI [25] was 11.9 µM and the GI50 [26] was 3.35 µM. It also gave a TGI [26] of 17.9 µM, a GI50 [27] of 6.52 µM and a TGI [27] of 20.3 µM. It also gave a GI50 [28] of 0.68 µM, a TGI [28] of 7.75 µM and a GI50 [29] of 0.107 µM. The TGI [29] was 5.59 µM, the GI50 [30] was 2.55 µM and the TGI [30] was 16.6 µM. It also gave a GI50 [31] of 0.977 µM, a TGI [31] of 11.3 µM and a GI50 [32] of 0.3 µM. It also gave a TGI [32] of 11.9 µM, a GI50 [33] of 0.536 µM and a TGI [33] of 12.6 µM. For the same compound, the GI50 [34] was 1.73 µM, the TGI [34] was 14.6 µM and the GI50 [35] was 8.99 µM. The TGI [35] was 22.6 µM, the GI50 [36] was 2.5 µM and the TGI [36] was 7.63 µM. The GI50 [37] was 12.3 µM, the TGI [37] was 25.5 µM and the GI50 [38] was 6.05 µM. It also gave a TGI [38] of 22.1 µM, a GI50 [39] of 6.53 µM and a TGI [39] of 30.5 µM. The GI50 [40] was 1.39 µM, the TGI [40] was 14.9 µM and the GI50 [41] was 1.35 µM. It also gave a TGI [41] of 5.71 µM, a GI50 [42] of 1.31 µM and a TGI [42] of 19.1 µM. The GI50 [43] was 0.29 µM, the TGI [43] was 12.6 µM and the GI50 [44] was 1.36 µM. It also gave a TGI [44] of 3.76 µM, a GI50 [45] of 18.5 µM and a TGI [45] of 37.8 µM. The GI50 [46] was 16 µM, the TGI [46] was 29.7 µM and the GI50 [47] was 1.7 µM. The TGI [47] was 11.9 µM, the GI50 [48] was 1.52 µM and the TGI [48] was 8.18 µM. The GI50 [49] was 4.19 µM, the TGI [49] was > 100 µM and the GI50 [50] was 1.2 µM. For the same compound, the TGI [50] was 12.8 µM, the GI50 [51] was 0.155 µM and the TGI [51] was 7.49 µM. It also gave a GI50 [52] of 0.369 µM, a TGI [52] of 4.85 µM and a GI50 [53] of 0.946 µM. It also gave a TGI [53] of 20.5 µM, a GI50 [54] of 4.97 µM and a TGI [54] of 22.2 µM. The GI50 [55] was 14.2 µM, the TGI [55] was 28 µM and the GI50 [56] was 0.667 µM. For the same compound, the TGI [56] was 17.2 µM, the GI50 [57] was 12 µM and the TGI [57] was 25.2 µM. It also gave a GI50 [58] of 2.43 µM, a TGI [58] of 16.1 µM and a GI50 [59] of 5.88 µM. The TGI [59] was 19.7 µM.
